Data from PubChem BioAssay (NCI).
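48-hour exposure; five concentrations; linearly interpolated endpoints. GI50 = concentration required for 50% inhibition of growth. At the TGI there is no net growth.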

Assays:
Test in all cases: NCI anticancer screen, dose series, 48 h
NCI-H226 lung = tested on: NCI-H226 lung
NCI-H23 lung = tested on: NCI-H23 lung
NCI-H460 lung = tested on: NCI-H460 lung
NCI-H522 lung = tested on: NCI-H522 lung
NCI/ADR-RES ovarian = tested on: NCI/ADR-RES ovarian
OVCAR-3 ovarian = tested on: OVCAR-3 ovarian
OVCAR-4 ovarian = tested on: OVCAR-4 ovarian
OVCAR-5 ovarian = tested on: OVCAR-5 ovarian
OVCAR-8 ovarian = tested on: OVCAR-8 ovarian
PC-3 prostate = tested on: PC-3 prostate
RPMI-8226 leukemia = tested on: RPMI-8226 leukemia
RXF 393 renal = tested on: RXF 393 renal
SF-268 CNS = tested on: SF-268 CNS
SF-295 CNS = tested on: SF-295 CNS
SF-539 CNS = tested on: SF-539 CNS
SK-MEL-2 melanoma = tested on: SK-MEL-2 melanoma
SK-MEL-28 melanoma = tested on: SK-MEL-28 melanoma
SK-MEL-5 melanoma = tested on: SK-MEL-5 melanoma
SK-OV-3 ovarian = tested on: SK-OV-3 ovarian
SN12C renal = tested on: SN12C renal
SNB-19 CNS = tested on: SNB-19 CNS
SNB-75 CNS = tested on: SNB-75 CNS
SR leukemia = tested on: SR leukemia
SW-620 colon = tested on: SW-620 colon
T-47D breast = tested on: T-47D breast
TK-10 renal = tested on: TK-10 renal
U251 CNS = tested on: U251 CNS
UACC-257 melanoma = tested on: UACC-257 melanoma
UACC-62 melanoma = tested on: UACC-62 melanoma
UO-31 renal = tested on: UO-31 renal

O=C1Nc2cc(-c3ccc(NS(=O)(=O)c4ccc(-c5ccccc5)cc4)cc3)ccc2/C1=C/c1ccc[nH]1
TGI (NCI-H226 lung): 14.8 µM
GI50 (NCI-H23 lung): 1.2 µM
TGI (NCI-H23 lung): 5.91 µM
GI50 (NCI-H460 lung): 0.351 µM
TGI (NCI-H460 lung): 2.13 µM
GI50 (NCI-H522 lung): 2.27 µM
TGI (NCI-H522 lung): 7.94 µM
GI50 (NCI/ADR-RES ovarian): 6.29 µM
TGI (NCI/ADR-RES ovarian): 30.9 µM
GI50 (OVCAR-3 ovarian): 1.94 µM
TGI (OVCAR-3 ovarian): 4.65 µM
GI50 (OVCAR-4 ovarian): 2.1 µM
TGI (OVCAR-4 ovarian): 11.9 µM
GI50 (OVCAR-5 ovarian): 3.42 µM
TGI (OVCAR-5 ovarian): 14.3 µM
GI50 (OVCAR-8 ovarian): 3.45 µM
TGI (OVCAR-8 ovarian): 12.2 µM
GI50 (PC-3 prostate): 3.27 µM
TGI (PC-3 prostate): 18.1 µM
GI50 (RPMI-8226 leukemia): 3.09 µM
TGI (RPMI-8226 leukemia): 15.7 µM
GI50 (RXF 393 renal): 2.48 µM
TGI (RXF 393 renal): 5.56 µM
GI50 (SF-268 CNS): 4.26 µM
TGI (SF-268 CNS): 16.3 µM
GI50 (SF-295 CNS): 7.29 µM
TGI (SF-295 CNS): 19.8 µM
GI50 (SF-539 CNS): 3.66 µM
TGI (SF-539 CNS): 14.7 µM
GI50 (SK-MEL-2 melanoma): 11.8 µM
TGI (SK-MEL-2 melanoma): 24.4 µM
GI50 (SK-MEL-28 melanoma): 3.77 µM
TGI (SK-MEL-28 melanoma): 13.5 µM
GI50 (SK-MEL-5 melanoma): 6.91 µM
TGI (SK-MEL-5 melanoma): 21.8 µM
GI50 (SK-OV-3 ovarian): 13.3 µM
TGI (SK-OV-3 ovarian): 26 µM
GI50 (SN12C renal): 3.07 µM
TGI (SN12C renal): 12 µM
GI50 (SNB-19 CNS): 5.91 µM
TGI (SNB-19 CNS): 18.7 µM
GI50 (SNB-75 CNS): 12.8 µM
TGI (SNB-75 CNS): 35.6 µM
GI50 (SR leukemia): 1.9 µM
TGI (SR leukemia): 10.9 µM
GI50 (SW-620 colon): 2.45 µM
TGI (SW-620 colon): 6.56 µM
GI50 (T-47D breast): 0.136 µM
TGI (T-47D breast): 3.57 µM
GI50 (TK-10 renal): 2.66 µM
TGI (TK-10 renal): 11 µM
GI50 (U251 CNS): 2.18 µM
TGI (U251 CNS): 5.73 µM
GI50 (UACC-257 melanoma): 5.84 µM
TGI (UACC-257 melanoma): 20.4 µM
GI50 (UACC-62 melanoma): 5.37 µM
TGI (UACC-62 melanoma): 19.7 µM
GI50 (UO-31 renal): 10.7 µM
TGI (UO-31 renal): 29.1 µM
